Laboratory results published in paper PMC2266763, “Dimerization of the transmembrane domain of amyloid precursor proteins and familial Alzheimer's disease mutants” (BMC Neuroscience, 2008).
“Also recorded” adds a separate entry of the source. Ends that are not written are not given here. Lys‑tag = not defined here

B1: wild-type APP-TM peptide (peptide)
peptide: GAIIGLMVGGVVIATVIVITLVML-{Lys‑tag}
modifications: not fully specified (N-terminus); reading uncertain
notes: amyloid precursor protein (APP), human, residues 700 to 723, contain the TM segment; Two versions were synthesised: Lys-tag-W-(700-723)-Lys-tag (FRET donor) and Lys-tag-E(EDANS)-(700-723)-Lys-tag (FRET acceptor); also called wild-type APP transmembrane domain peptide; source: synthetic peptide (solid-phase synthesis, purified by reverse phase C4-HPLC); not shown: oligo-lysine tag (Lys-tag), …
B2: V717F APP-TM peptide (peptide)
peptide: GAIIGLMVGGVVIATVIFITLVML-{Lys‑tag}
modifications: not fully specified (N-terminus); reading uncertain
notes: amyloid precursor protein (APP), human, residues 700 to 723 with the familial Alzheimer's disease mutation V717F; Two versions (Trp donor, Glu-EDANS acceptor) as for m1; Said to be soluble only in the presence of SDS; source: synthetic peptide (solid-phase synthesis, purified by reverse phase C4-HPLC); not shown: oligo-lysine tag (Lys-tag), N-terminal, kept; Trp (donor version) or Glu-EDANS …
B3: V717G APP-TM peptide (peptide)
peptide: GAIIGLMVGGVVIATVIGITLVML-{Lys‑tag}
modifications: not fully specified (N-terminus); reading uncertain
notes: amyloid precursor protein (APP), human, residues 700 to 723 with the familial Alzheimer's disease mutation V717G; Two versions (Trp donor, Glu-EDANS acceptor) as for m1; source: synthetic peptide (solid-phase synthesis, purified by reverse phase C4-HPLC); not shown: oligo-lysine tag (Lys-tag), N-terminal, kept; Trp (donor version) or Glu-EDANS (acceptor version), N-terminal, kept; oligo-lysine …

Legend:
[1] = tested on: APP-TM dimer (self-association); experiment: SDS-PAGE oligomeric state; assay type: binding, human; details: 20 mM SDS; for Oligomeric state by SDS-PAGE: 40 mM Tris, 8 mM Acetate (pH 7.0), 5% glycerol, 0 – 25 μM peptide, boiled 5 minutes; for Oligomeric state by SDS-PAGE, concentration range: at different concentrations (0 – 25 μM peptide), pH 7.0
Description: Samples contained 20 mM SDS, 40 mM Tris, 8 mM Acetate (pH 7.0), 5% glycerol, and 0 – 25 μM peptide. They were boiled for 5 minutes and subjected to SDS-PAGE using precast 4–12% Nupage gels (Invitrogen) and a standard running buffer. SeeBlue®Plus2 molecular weight markers from Invitrogen were used as standards.

[2] = tested on: APP-TM dimer (self-association); experiment: FRET dimer dissociation, APP-TM peptides in SDS micelles; assay type: binding, human; details: for Kd: concentration dependence of FRET (Trp donor / EDANS acceptor, equimolar), 20 mM SDS, 40 mM Tris, 8 mM Acetate (pH 7.0), 0 – 90 μM peptide, overnight, room temperature, average error 3.6%, read-out: Apparent dimer dissociation constant
Description: (§1) Mixed peptide-SDS micelles were prepared by the addition of concentrated SDS to peptide solutions, such that the final concentrations were 20 mM SDS, 40 mM Tris, 8 mM Acetate (pH 7.0) and 0 – 90 μM peptide. The samples were sonicated and incubated overnight in the dark at room temperature before making fluorescence measurements.
(§2) Fluorescence measurements were made at room temperature using a PTI QM-1 fluorescence spectrophotometer. A quartz cuvette with a 2 mm excitation pathlength and a 1 cm emission pathlength was used. The excitation wavelength was 285 nm and the bandpass was 4 nm. We obtained a quantitative measure of the degree of peptide oligomerization by integrating the EDANS emission signal from 472–496 nm and dividing this value with the integrated Trp emission signal from 350–375 nm. This ratio of acceptor fluorescence to donor fluorescence is denoted either as Acceptor/Donor ratio or A/D ratio and can be used to compare peptide oligomerization at varying concentrations.
The apparent dissociation constants were determined using an equation derived from first principles of monomer-dimer equilibrium, where Kd = [A]^2/[A2]. The fluorescence acceptor-donor ratio was plotted against total peptide concentration and fit to the following equation:
[AT]=Kd(Fobs−Fmin/Fmax−Fmin)/2(1−Fobs−Fmin/Fmax−Fmin)^2
Where AT = total APP-TM peptide concentration, F = A/D ratio, fraction dimer = (Fobs-Fmin)/Fmax-Fmin), and % dimer = 100% (fraction dimer). The goodness-of-fit to the model were assessed using the chi-squared test, nonlinear least squares correlation, and examination of residuals.

[3] = Solubility of APP-TM peptides; assay type: physicochemical
wild-type APP-TM peptide [4] = experiment: FRET hetero-oligomerization of wild-type and mutant APP-TM peptides; assay type: binding, human; details: Trp-labeled wild-type with EDANS-labeled V717G, constant 1:1 ratio, 20 mM SDS
Description: as §1, §2

Aβ40 and Aβ42 production = experiment: Aβ ELISA immunoassay, HEK293 cells expressing Swedish mutant APP and γ-secretase components; assay type: cell-based, human; details: for Effect on levels of Aβ (Aβ40 and Aβ42): overnight incubation, 0, 20 or 100 μM peptide, conditioned media; for Effect on levels of Aβ (Aβ40 and Aβ42) / Effect on Aβ42/40 ratio: relative to control samples
Description: Stably transfected HEK293 cells overexpressing the Swedish double mutant (K670N/M671L) of APP751, presenilin 1, nicastrin, PEN-2 and APH-1 were grown to confluency in DMEM media containing 10% fetal bovine serum. The cells were grown for another 48 hours with the media changed twice at equivalent time intervals. Cells were then incubated overnight in fresh media containing 0, 20 or 100 μM APP-TM peptides. The media was collected and subjected to an immunoassay to determine the Aβ42 and Aβ40 concentrations. The ELISA BioSource immunoassay human β-amyloid 1–40/1–42 colorimetric kit (catalogue number KHB3482/KHB3481) was used and the standard protocol was followed. This sandwich ELISA technique makes use of an immobilized Aβ antibody that binds both Aβ40 and Aβ42 at an N-terminal epitope. The bound Aβ40 and Aβ42 are then detected using a C-terminal antibody specific for either Aβ40 or Aβ42. […] Therefore, this assay is ideally suited to detect any disturbances in the normal processing of endogeneuous full length APP in the presence of APP-TM peptides.

[5] = tested on: HEK293 cells stably overexpressing Swedish-mutant APP751 and γ-secretase components; experiment: Sulforhodamine B (SRB) cytotoxicity assay; assay type: cell-based; details: SRB assay, 0, 10, 20, and 100 μM peptide, overnight
Description: Stably transfected HEK293 cells overexpressing Swedish-mutant APP751 and γ-secretase components were plated at 15,000 cells/well in DMEM media containing 10% fetal bovine serum. The cells were grown for another 48 hours with the media changed twice at equivalent time intervals. Cells were then incubated overnight in fresh media containing 0, 10, 20, and 100 μM APP-TM peptides, and the SRB cytotoxicity assay was performed as previously described.

[6] = tested on: APP-TM oligomer (self-association); experiment: FRET of APP-TM peptides in DOPG phospholipid vesicles; assay type: binding, human; details: 1:20 peptide:DOPG, 50 mM Tris, 10 mM NaCl (pH 7.0), room temperature, excitation 285 nm
Description: DOPG vesicles with incorporated peptides were prepared via sonication of dried lipid films in the presence of peptide solution at a molar ratio of 1 mole of peptide: 20 moles of DOPG as previously described. The samples contained 50 mM Tris, 10 mM NaCl (pH 7.0) as the buffer. […] Purified peptide-incorporated vesicle fractions were used for fluorescence measurements.
as §2

[7] = molecular target: T714I APP-TM peptide (human); experiment: FRET or BRET; apparent; dimer to monomers; concentration dependence of the A/D ratio in equimolar mixtures of donor- and acceptor-labelled peptide, 20 mM SDS, 40 mM Tris, 8 mM acetate (pH 7.0), 0 – 90 μM peptide, room temperature
[8] = molecular target: the molecule itself; experiment: SDS-PAGE of the oligomeric state; 20 mM SDS, 40 mM Tris, 8 mM acetate (pH 7.0), 5% glycerol, 0 – 25 μM peptide, boiled 5 minutes, 4–12% Nupage gels
[9] = molecular target: the molecule itself; experiment: FRET or BRET; apparent; dimer to monomers; concentration dependence of the A/D ratio in equimolar mixtures of donor- and acceptor-labelled peptide, 20 mM SDS, 40 mM Tris, 8 mM acetate (pH 7.0), 0 – 90 μM peptide, room temperature
[10] = molecular target: V717F APP-TM peptide (human); experiment: as above
wild-type APP-TM peptide [11] = molecular target: B1; experiment: FRET or BRET; mixed: Trp-labelled wild-type with equimolar Edans-labelled mutant peptide in 20 mM SDS; A/D ratio against total peptide concentration (V717G) and at 50 μM total peptide (all mutants); baseline A/D 0.24 for non-interacting peptides; details: both partners purified
[12] = 0, 20 or 100 μM peptide, overnight

Question: Which “Oligomeric state by SDS-PAGE” value [1] does the source give for “Lys-tag(W/EEDANS)GAIIGLMVGGVVIAIVIGITLVML Lys-tag [T714I, FAD mutant T714I APP-TM peptide with N- and C-terminal oligo-lysine tags]” here?
Answer: Its value is “predominantly monomeric”.

Question: What about the Relative dimer stability ([2]; among wild-type and FAD mutants tested, SDS micelles) of the same molecule?
Answer: Its Relative dimer stability is “least stable dimer”.

Question: And the Kd [2]?
Answer: Its Kd is 395 µM.

Question: And the Solubility [3]?
Answer: Its Solubility is “only soluble in the presence of SDS”.

Question: Which results are given for “Lys-tag(W/EEDANS)GAIIGLMVGGVVIATVIFITLVML Lys-tag [V717F, FAD mutant V717F APP-TM peptide with N- and C-terminal oligo-lysine tags]”?
Answer: Oligomeric state by SDS-PAGE [1]: predominantly monomeric; Kd [2]: 125 µM; Solubility [3]: only soluble in the presence of SDS

Question: Which “Oligomeric state by SDS-PAGE” value [1] does the source give for “Lys-tag(W/EEDANS)GAIIGLMVGGVVIATVIGITLVML Lys-tag [V717G, FAD mutant V717G APP-TM peptide with N- and C-terminal oligo-lysine tags]” here?
Answer: Its value is “populated both monomer and dimer states”.

Question: And the “Oligomeric state by SDS-PAGE, concentration range” value [1]?
Answer: The value was “formed monomer-dimer mixtures across the same concentration range”.

Question: And the “Total peptide concentration at which A/D ratio shows signs of saturation (hetero-oligomerization)” value (wild-type APP-TM peptide [4])?
Answer: Its value is “above 50 μM”.

Question: What about the “Concentration dependence of Aβ reduction” value (Aβ40 and Aβ42 production; [12]) of the same molecule?
Answer: Its value is “strong concentration dependence”.

Question: What about the “Inhibitory effect on Aβ42 versus Aβ40 production” value (Aβ40 and Aβ42 production; [12]) of the same molecule?
Answer: Its value is “greater inhibitory effect on Aβ42 production (Fig. 7B) than on Aβ40 production”.

Question: And the “Suppression of Aβ production relative to wild-type peptide” value (Aβ40 and Aβ42 production; [12])?
Answer: Its value is “greater than that of the wild-type peptide; also recorded: significantly greater inhibition of Aβ production than the wild-type peptide”.

Question: What about the “Effect on levels of Aβ (Aβ40 and Aβ42)” value (Aβ40 and Aβ42 production) of the same molecule?
Answer: The value was “drastic reduction in the levels of Aβ relative to control samples”.

Question: What about the “Effect on Aβ42/40 ratio” value (Aβ40 and Aβ42 production; [12]) of the same molecule?
Answer: The value was “reduction in the Aβ42/40 ratio relative to control samples”.

Question: What about the “Cell survival / viability” value [5] of the same molecule?
Answer: The value was “neither peptide caused a reduction in cell survival”.

Question: What does the source list for “Lys-tag(W/EEDANS)GAIIGLMVGGVVIATVIVITLVML Lys-tag [wild-type, APP-TM peptide, residues 700 to 723 of human APP, with N- and C-terminal oligo-lysine tags; Trp or Glu-EDANS labeled]”?
Answer: Oligomeric state by SDS-PAGE [1]: formed stable dimers; Oligomeric state by SDS-PAGE, concentration range [1]: predominantly dimeric under all concentrations tested; FRET signature (donor quenching, acceptor sensitization) in phospholipid bilayers [6]: Typical donor quenching and acceptor sensitization was observed; Concentration dependence of Aβ reduction (Aβ40 and Aβ42 production; [12]): strong concentration dependence; Inhibitory effect on Aβ42 versus Aβ40 production (Aβ40 and Aβ42 production; [12]): greater inhibitory effect on Aβ42 production (Fig. 7B) than on Aβ40 production; Effect on levels of Aβ (Aβ40 and Aβ42) (Aβ40 and Aβ42 production): drastic reduction in the levels of Aβ relative to control samples; Effect on Aβ42/40 ratio (Aβ40 and Aβ42 production; [12]): reduction in the Aβ42/40 ratio relative to control samples; Cell survival / viability [5]: neither peptide caused a reduction in cell survival

Question: For T714I APP-TM peptide, which Kd [7] is on record?
Answer: Its Kd is 395 µM.

Question: For B1, which “stoichiometry N” value [8] is on record?
Answer: The value was 2.

Question: What about the Kd [9] of the same molecule?
Answer: The Kd was 10.3 µM.

Question: Which Kd [10] does the source give for B2 here?
Answer: The Kd was 125 µM.

Question: Does B2 bind (wild-type APP-TM peptide [11])?
Answer: Result: binds

Question: What does the source list for B3?
Answer: stoichiometry N [8]: 2; Kd [9]: 20.4 µM; binding result (wild-type APP-TM peptide [11]): binds
